Assay results as given in article PMC9516243, “Design of stapled peptide-based PROTACs for MDM2/MDMX atypical degradation and tumor suppression” (Theranostics, 2022).
Positions of bridges follow the written chain, without caps; N, C: chain ends. Non-standard residues stand in square brackets, D forms with d. Residues, ends and D or L forms follow the SMILES beside them. Hyp = O=C(O)[C@@H]1C[C@@H](O)CN1; R8 = C=CCCCCCC[C@@](C)(N)C(=O)O; hLeu = CC(C)CC[C@H](N)C(=O)O; S5 = C=CCCC[C@](C)(N)C(=O)O; AEA = NCCOCC(=O)O

Tests used:
[1] = test system: HCT-116 subcutaneous xenograft; assay: Subcutaneous HCT-116 xenograft model; type: in vivo, BALB/c nude mice
Method: Four-week-old male BALB/c nude mice (15-20 g) were used to establish subcutaneous and orthotopic xenograft models. A total of 5 × 10^6 HCT-116 cells were subcutaneously inoculated into the right flanks of the mice. Tumor volume was calculated using the following formula: V = (L × W^2)/2, where L is the length and W is the width of the tumor nodules measured with a vernier caliper. […] Drugs were intravenously injected into the mice every 2 days for 2 weeks. In addition, the model of orthotopic CRC xenografts was established. Briefly, mice were anesthetized after fasting for 12 h. Subsequently, the distal anal and rectal mucosa were exposed, and transanal injection of HCT-116 cells (5 × 10^6) was performed using a 30 G sterile needle. The injection was given directly into the rectal mucosa. Tumor growth was investigated, and once the tumors reached ~0.5 cm in size, the mice were randomly divided into two groups. The mice were treated every other day for 2 weeks with tail vein injections of either vehicle (saline) or sPMI-HIF2-1 (2 mg/kg). Body weight was measured before saline or drug injection. All mice were euthanized on day 14 following drug treatment, and the tumors were isolated, photographed, weighed, and measured.

[2] = test system: MDM2 and MDMX in HCT116 cells; assay: Western blot of MDM2 and MDMX protein levels; type: cell-based, human
Method: HCT116, MCF-7, or other cells were seeded in six-well plates (4 × 10^5 cells/well) and treated with PROTACs at the indicated concentrations for 24 h. The cells were lysed in RIPA lysis buffer. The protein concentrations were measured using the BCA method and equal amounts of each sample were separated by SDS-PAGE, followed by transfer onto filter membranes. Then, the membranes were blocked and incubated with primary antibodies (Abcam, UK) at 4 °C overnight, followed by incubation with the secondary antibodies. The protein bands were identified using a ChemiDoc MP Imaging System (Bio-Rad, USA).

α-Chymotrypsin = assay: Proteolytic stability against chymotrypsin; type: in vitro ADME; details: chymotrypsin 5 ng/μl (10 μl) added to 1 ml of 1 mM peptide, PBS 50 mM pH 7.4, 2 mM CaCl2, 25°C, HPLC, 90 min, read-out: intact peptide still observed after proteolytic digestion for 90 min
Method: Peptides were dissolved in PBS (50 mM, pH = 7.4) to a final concentration of 1 mM. α-Chymotrypsin was dissolved in PBS (50 mM, containing 2 mM of CaCl2, pH = 7.4) to a final concentration of 5 ng/μl. Then the peptide solutions (1 ml) were incubated with […] (10 μl) at 25°C. Samples were taken at 0, 5, 30, 60, 90, and 120 min and reactions were quenched with 20 μL of hydrochloric acid (1 M). The solution of the trypsin peptide fragments was monitored by HPLC at different time points to determine the fraction of protease degradation.

[3] = 10 mg/kg i.v. tail vein every other day for 2 weeks, tumor volume

SMILES: CC(=O)N[C@H](C(=O)N[C@@H](CO)C(=O)N[C@@H](Cc1ccccc1)C(=O)N[C@]1(C)CCCCCCC=CCCC[C@@](C)(C(=O)NCCOCC(=O)N[C@@H](CC(C)C)C(=O)N[C@@H](C)C(=O)N2C[C@H](O)C[C@H]2C(=O)N[C@@H](Cc2ccc(O)cc2)C(=O)N[C@@H](CCC(C)C)C(=O)N2CCC[C@H]2C(N)=O)NC(=O)[C@H](CC(C)C)NC(=O)[C@H](CC(C)C)NC(=O)[C@H](C)NC(=O)[C@H](Cc2c[nH]c3ccccc23)NC(=O)[C@H](Cc2ccc(O)cc2)NC(=O)[C@H](CCC(=O)O)NC1=O)[C@@H](C)O [SPMI-HIF2-1] (Ac-TSF[R8]EYWALL[S5][AEA]LA[Hyp]Y[hLeu]P-NH2; staple 4-11)
- body weight ([1]; 10 mg/kg i.v. every other day for 2 weeks): no obvious changes in body weight
- inhibition of tumor growth, enhanced compared to the 50 mg/kg PMI-HIF1-1 group [1, 3]: 3 fold
- inhibition of tumor growth, enhanced compared to the control group [1, 3]: 5 fold
- turning point of atypical degradation of MDM2 and MDMX [2]: approximately 20 μM
- remaining at 1.5 h, 1 mM (α-Chymotrypsin): > 60%
